Reference: publication PMC6397271 (Scientific Reports, 2019)
Values after ≈ are worked out from the molar mass of the structure shown. Read-outs that look alike come from different tables or passages of the source.

Legend:
Test in all cases: microbe, parasite or virus in culture
S. aureus MRSA 12673 = assay type: cell-based, Staphylococcus aureus; conditions: for MIC: raw MIC
Text: (§1) Three bacterial strains of MRSA (N315, 12673, 6347) and two of Enterococcus spp. (E. faecium, E. faecalis) were used. With respect to MRSA, N315 represented a reference Van-susceptible strain (GenBank GCA_00000645.1) isolated from a patient while 12673 (Van-intermediately susceptible) and 6347 (a h-VISA which appears at frequency of <10^−5 to 10^−6 is composed of two subpopulations of bacteria: one susceptible and one intermediately resistant)[38] were clinical strains obtained from patients of The Clinical University Centre of Gdańsk (UCK). […] The clinical strain isolates originated from the collection of the Department of Pharmaceutical Technology and Biochemistry, Faculty of Chemistry, Gdańsk University of Technology.
(§2) The strains were grown in Mueller-Hinton broth (MH cation-adjusted, Becton Dickinson) or Brain Heart Infusion broth (BHI, Becton Dickinson), respectively. The cultivation was carried out in an aerobic atmosphere at 37 °C for 24 hours and, afterwards, the bacterial cultures were diluted in geometric progression with a proper broth. Next, 100 µl of each dilution was inoculated in an agar plate and incubated at 37 °C for 24 h. The next procedures included determination of Colony Forming Units (CFU)/ml and minimal inhibitory concentration (MIC) of the compounds in question. The latter procedure was carried out according to the microbroth dilution technique using 96-well plates. The MICs were evaluated by using the metabolic assay based on the resazurin dye. The assay was performed in triplicates.

S. aureus MRSA N315 = assay type: cell-based, Staphylococcus aureus; conditions: for MIC: raw MIC
Text: as §1, §2

[1] = tested on: S. aureus MRSA hetero-VISA 6347; assay type: cell-based, Staphylococcus aureus; conditions: for MIC: raw MIC
Text: as §1, §2

[2] = tested on: Enterococcus faecalis 3937158; assay type: cell-based
Text: as §1, §2

[3] = tested on: Enterococcus faecium 3934825; assay type: cell-based; conditions: for MIC: raw MIC
Text: as §1, §2

[4] = first block, test a, repetition 1, read-out: MIC1a
[5] = first block, test a, repetition 2, read-out: MIC2a
[6] = first block, test a, repetition 3, read-out: MIC3a
[7] = first block, test b, repetition 1, read-out: MIC1b
[8] = first block, test b, repetition 2, read-out: MIC2b
[9] = first block, test b, repetition 3, read-out: MIC3b
[10] = test a, repetition 1, read-out: MIC1a
[11] = test a, repetition 2, read-out: MIC2a
[12] = test a, repetition 3, read-out: MIC3a
[13] = test b, repetition 1, read-out: MIC1b
[14] = test b, repetition 2, read-out: MIC2b
[15] = test b, repetition 3, read-out: MIC3b
[16] = same test as μM value, mean ± SD

## CC[C@H](C)[C@H](NC(=O)[C@H](CCCCN)NC(=O)[C@H](CCCCN)NC(=O)[C@H](C)NC(=O)[C@H](CC(C)C)NC(=O)[C@H](C)NC(=O)[C@H](C)NC(=O)[C@H](CC(C)C)NC(=O)[C@H](C)NC(=O)[C@H](CCCCN)NC(=O)[C@H](CC(C)C)NC(=O)[C@H](CC(N)=O)NC(=O)[C@@H](NC(=O)[C@H](CCCCN)NC(=O)CNC(=O)[C@H](CC(C)C)NC(=O)[C@H](CC(C)C)NC(=O)[C@H](Cc1ccc(O)cc1)NC(=O)CNC(=O)[C@H](C)N)[C@@H](C)CC)C(=O)N[C@@H](CC(C)C)C(=O)N[C@@H](Cc1cn(CCOCCOCCOCCOCCC(=O)N[C@@]2(C)C[C@H](O[C@H]3[C@H](Oc4c5cc6cc4Oc4ccc(cc4Cl)[C@@H](O)[C@@H](NC(=O)[C@@H](CC(C)C)NC)C(=O)N[C@@H](CC(N)=O)C(=O)N[C@H]6C(=O)N[C@H]4C(=O)N[C@H](C(=O)N[C@H](C(=O)O)c6cc(O)cc(O)c6-c6cc4ccc6O)[C@H](O)c4ccc(c(Cl)c4)O5)O[C@H](CO)[C@@H](O)[C@@H]3O)O[C@@H](C)[C@H]2O)nn1)C(N)=O [conjugate III, TP10-Ala(PEG4-Van)]
S. aureus MRSA 12673; [4]
  MIC: 0.78 µM (≈ 3.12 µg/mL)
S. aureus MRSA 12673; [5]
  MIC: 1.56 µM (≈ 6.24 µg/mL)
S. aureus MRSA 12673; [6]
  MIC: 0.78 µM (≈ 3.12 µg/mL)
S. aureus MRSA 12673; [7]
  MIC: 0.78 µM (≈ 3.12 µg/mL)
S. aureus MRSA 12673; [8]
  MIC: 1.56 µM (≈ 6.24 µg/mL)
S. aureus MRSA 12673; [9]
  MIC: 0.78 µM (≈ 3.12 µg/mL)
S. aureus MRSA 12673; [10]
  MIC: 3.12 µM (≈ 12.5 µg/mL)
S. aureus MRSA 12673; [11]
  MIC: 6.24 µM (≈ 25 µg/mL)
S. aureus MRSA 12673; [12]
  MIC: 3.12 µM (≈ 12.5 µg/mL)
S. aureus MRSA 12673; [13]
  MIC: 3.12 µM (≈ 12.5 µg/mL)
S. aureus MRSA 12673; [14]
  MIC: 6.24 µM (≈ 25 µg/mL)
S. aureus MRSA 12673; [15]
  MIC: 3.12 µM (≈ 12.5 µg/mL)
S. aureus MRSA 12673; [16]
  MIC in (μg/ml): 3.1 ± 1.6 µg/mL (≈ 0.775 µM)
S. aureus MRSA N315; [4]
  MIC: 12.5 µM (≈ 50 µg/mL)
S. aureus MRSA N315; [5]
  MIC: 6.25 µM (≈ 25 µg/mL)
S. aureus MRSA N315; [6]
  MIC: 12.5 µM (≈ 50 µg/mL)
S. aureus MRSA N315; [7]
  MIC: 12.5 µM (≈ 50 µg/mL)
S. aureus MRSA N315; [8]
  MIC: 12.5 µM (≈ 50 µg/mL)
S. aureus MRSA N315; [9]
  MIC: 6.25 µM (≈ 25 µg/mL)
S. aureus MRSA N315; [10]
  MIC: 50.01 µM (≈ 200 µg/mL)
S. aureus MRSA N315; [11]
  MIC: 25.01 µM (≈ 100 µg/mL)
S. aureus MRSA N315; [12]
  MIC: 50.01 µM (≈ 200 µg/mL)
S. aureus MRSA N315; [13]
  MIC: 50.01 µM (≈ 200 µg/mL)
S. aureus MRSA N315; [14]
  MIC: 50.01 µM (≈ 200 µg/mL)
S. aureus MRSA N315; [15]
  MIC: 25.01 µM (≈ 100 µg/mL)
S. aureus MRSA N315; [16]
  MIC in (μg/ml): 50.0 ± 12.9 µg/mL (≈ 12.5 µM)
[1]; [4]
  MIC: 1.6 µM (≈ 6.4 µg/mL)
[1]; [5]
  MIC: 0.78 µM (≈ 3.12 µg/mL)
[1]; [6]
  MIC: 0.78 µM (≈ 3.12 µg/mL)
[1]; [7]
  MIC: 1.6 µM (≈ 6.4 µg/mL)
[1]; [8]
  MIC: 1.6 µM (≈ 6.4 µg/mL)
[1]; [9]
  MIC: 1.6 µM (≈ 6.4 µg/mL)
[1]; [10]
  MIC: 6.4 µM (≈ 25.6 µg/mL)
[1]; [11]
  MIC: 3.2 µM (≈ 12.8 µg/mL)
[1]; [12]
  MIC: 3.2 µM (≈ 12.8 µg/mL)
[1]; [13]
  MIC: 6.4 µM (≈ 25.6 µg/mL)
[1]; [14]
  MIC: 6.4 µM (≈ 25.6 µg/mL)
[1]; [15]
  MIC: 6.4 µM (≈ 25.6 µg/mL)
[1]; [16]
  MIC in (μg/ml): 6.4 ± 1.7 µg/mL (≈ 1.6 µM)
[2]; microbroth dilution, 96-well, resazurin, 37 °C, 24 h, mean ± SD, at least three independent experiments in triplicates
  MIC: 25.0 ± 5.1 µM (≈ 100 µg/mL)
[2]; raw MIC, first block, test a, repetition 1, read-out: MIC1a
  MIC: 25 µM (≈ 100 µg/mL)
[2]; raw MIC, first block, test a, repetition 2, read-out: MIC2a
  MIC: 25 µM (≈ 100 µg/mL)
[2]; raw MIC, first block, test a, repetition 3, read-out: MIC3a
  MIC: 25 µM (≈ 100 µg/mL)
[2]; raw MIC, first block, test b, repetition 1, read-out: MIC1b
  MIC: 12.5 µM (≈ 50 µg/mL)
[2]; raw MIC, first block, test b, repetition 2, read-out: MIC2b
  MIC: 25 µM (≈ 100 µg/mL)
[2]; raw MIC, first block, test b, repetition 3, read-out: MIC3b
  MIC: 25 µM (≈ 100 µg/mL)
[2]; raw MIC, test a, repetition 1, read-out: MIC1a
  MIC: 100.02 µM (≈ 400 µg/mL)
[2]; raw MIC, test a, repetition 2, read-out: MIC2a
  MIC: 100.02 µM (≈ 400 µg/mL)
[2]; raw MIC, test a, repetition 3, read-out: MIC3a
  MIC: 100.02 µM (≈ 400 µg/mL)
[2]; raw MIC, test b, repetition 1, read-out: MIC1b
  MIC: 50.01 µM (≈ 200 µg/mL)
[2]; raw MIC, test b, repetition 2, read-out: MIC2b
  MIC: 100.02 µM (≈ 400 µg/mL)
[2]; raw MIC, test b, repetition 3, read-out: MIC3b
  MIC: 100.02 µM (≈ 400 µg/mL)
[2]; [16]
  MIC in (μg/ml): 100.0 ± 20.4 µg/mL (≈ 25 µM)
[3]; [4]
  MIC: 12.5 µM (≈ 50 µg/mL)
[3]; [5]
  MIC: 6.25 µM (≈ 25 µg/mL)
[3]; [6]
  MIC: 12.5 µM (≈ 50 µg/mL)
[3]; [7]
  MIC: 6.25 µM (≈ 25 µg/mL)
[3]; [8]
  MIC: 12.5 µM (≈ 50 µg/mL)
[3]; [9]
  MIC: 12.5 µM (≈ 50 µg/mL)
[3]; [10]
  MIC: 50.01 µM (≈ 200 µg/mL)
[3]; [11]
  MIC: 25.01 µM (≈ 100 µg/mL)
[3]; [12]
  MIC: 50.01 µM (≈ 200 µg/mL)
[3]; [13]
  MIC: 25.01 µM (≈ 100 µg/mL)
[3]; [14]
  MIC: 50.01 µM (≈ 200 µg/mL)
[3]; [15]
  MIC: 50.01 µM (≈ 200 µg/mL)
[3]; [16]
  MIC in (μg/ml): 50.0 ± 12.9 µg/mL (≈ 12.5 µM)
